Patent US11331288B2, “Conditioning irradiated tissue for increasing vascularity” (THE BOARD OF TRUSTEES OF THE LELAND STANFORD JUNIOR …, priority 2017, dated 2022)

Key:
[1] = tested on: fat grafts in irradiated scalp; assay: Fat graft volume retention by micro-CT in DFO preconditioned irradiated scalp (Example 1); type: in vivo, mice
Description: (§1) Adult 60-day-old male Crl:NU-Fox1^NU immunocompromised mice were used for experiments in this study. Twelve mice were treated with a total of 30 Gy external beam radiation, delivered as six fractionated doses of 5 Gy each over 12 days, followed by 5 weeks of recovery. An additional six non-irradiated mice were used as healthy controls for laser Doppler analysis (LDA) and skin analysis. Irradiated mice were divided into two treatment groups: a DFO experimental group and saline control group. Following recovery, mice underwent injection of either DFO (1 mg in 100 μl saline) or 100 μl of saline alone beneath the dermis every other day for a total of seven treatments.
(§2) After irradiation, fat grafting was performed on the irradiated mice. After informed consent was obtained, lipoaspirate was obtained from three healthy female donors, with no other medical co-morbidities under an approved IRB protocol #2188. Lipoaspirate was allowed to settle for 15 minutes for layers to separate by gravity sedimentation, and then oil and blood layers were removed by vacuum aspiration. The remaining fat layer was centrifuged at 1300 rcf for 3 minutes at 4° C. Any remaining oil and blood was again removed and the remaining fat was transferred into 1 cc syringes for injection through a 14-gauge needle. Fat grafting was performed beneath the scalp by creating a subcutaneous tunnel with the needle and then injecting 200 μl of lipoaspirate in retrograde fashion while pulling the needle out.
Mice were also imaged using a MicroCAT-II in vivo X-Ray micro-CT scanner (Imtek, Inc.; Knoxville, Tenn.) two days after fat graft injection for baseline volume measurements. Fat graft volume retention was then analyzed every two weeks over a total of 8 weeks using microcomputed tomography, and images were reconstructed as three-dimensional surfaces through cubic-spline interpolation. All reconstructions were performed by a single investigator to avoid inter-observer variability.

[2] = tested on: inguinal fat pads transplanted to parascapular subcutaneous pockets; details: DFO injected fat grafts; cited from earlier work
[3] = tested on: irradiated scalp; assay: Laser Doppler analysis of perfusion of irradiated scalp, DFO injected beneath the dermis (Example 1); type: in vivo, mice
Description: as §1, §2
Laser Doppler Analysis (“LDA”) was performed to measure perfusion at the irradiated site using a Perimed PIM 3 laser Doppler perfusion imager (Datavagen, Sweden). The signal generated by the LDA, laser Doppler perfusion index (LDPI), was used for comparative purposes. LDPI is a product of the blood cell velocity and concentration and is represented by a color spectrum, with black/dark blue representing low perfusion and red representing high perfusion. […]
Five images were taken of each mouse, and the average LDPI of the five images was recorded. […]

[4] = tested on: irradiated scalp skin; assay: Dermal thickness of irradiated skin, H&E stained sections; type: in vivo, mice; details: after DFO treatment, before fat grafting; saline 256.71±16.76; not significantly less
Description: Adult 60-day-old male Crl:NU-Fox1^NU immunocompromised mice were used for experiments in this study. Twelve mice were treated with a total of 30 Gy external beam radiation, delivered as six fractionated doses of 5 Gy each over 12 days, followed by 5 weeks of recovery. An additional six non-irradiated mice were used as healthy controls for laser Doppler analysis (LDA) and skin analysis. Irradiated mice were divided into two treatment groups: a DFO experimental group and saline control group. Following recovery, mice underwent injection of either DFO (1 mg in 100 μl saline) or 100 μl of saline alone beneath the dermis every other day for a total of seven treatments. […] For skin analysis, scalp skin biopsy was harvested from both treatment groups following completion of radiation and then 8 weeks following fat grafting. […] Vascularity was determined with CD31 immunoflourescent staining (1:100 Ab28364; Abcam; Cambridge, Mass. and 1:200 AF547; Thermo Fisher Scientific; Waltham, Mass.) and DAPI counterstaining to visualize cell nuclei. Fluorescent images were obtained using an X-Cite 120 Fluorescence Illumination System (Lumen Dynamics Group, Inc.; Ontario, Canada) at the 20× objective. Quantification of CD31 staining was performed using ImageJ (National Institutes of Health; Bethesda, Md.), with pixel-positive area per high power field measured to determine vascular density (11). […]

SMILES: CC(=O)N(O)CCCCCNC(=O)CCC(=O)N(O)CCCCCNC(=O)CCC(=O)N(O)CCCCCN [DFO, Deferoxamine]
- fat graft volume retention ([1]; two weeks after fat grafting, saline control 74.03): 89.24%
- fat graft volume retention ([1]; week 6 after fat grafting, saline 52.40, p<0.05): 73.17%
- fat graft volume retention ([1]; week 8 after fat grafting, saline 49.47, p<0.05): 71.75%
- inflammation and fibrosis in fat grafts [2]: more inflammation and fibrosis
- laser Doppler perfusion index at the irradiated scalp ([3]; after four treatments of 1 mg DFO every other day beneath the dermis, 176.70±2.59 after irradiation, 265.23±7.01 pre-radiation baseline, mean±SE): 205.08±2.30 LDPI
- laser Doppler perfusion index following fat grafting ([3]; eight weeks following grafting, saline 119.18±4.09, p>0.05): 127.78±2.29 LDPI
- laser Doppler perfusion index following fat grafting ([3]; two weeks following injection of fat grafts, saline control 65.72±2.02, p<0.05): 86.33±2.00 LDPI
- dermal thickness of irradiated skin [4]: 242.09±7.22 μm
